According to BindingDB's records for patent US10376513 (Incyte Holdings Corporation, 2019):

Molecular target: T1, Phosphatidylinositol 4,5-bisphosphate 3-kinase catalytic subunit delta isoform (Homo sapiens, UniProt O00329)
T1 sequence (O00329 whole entry): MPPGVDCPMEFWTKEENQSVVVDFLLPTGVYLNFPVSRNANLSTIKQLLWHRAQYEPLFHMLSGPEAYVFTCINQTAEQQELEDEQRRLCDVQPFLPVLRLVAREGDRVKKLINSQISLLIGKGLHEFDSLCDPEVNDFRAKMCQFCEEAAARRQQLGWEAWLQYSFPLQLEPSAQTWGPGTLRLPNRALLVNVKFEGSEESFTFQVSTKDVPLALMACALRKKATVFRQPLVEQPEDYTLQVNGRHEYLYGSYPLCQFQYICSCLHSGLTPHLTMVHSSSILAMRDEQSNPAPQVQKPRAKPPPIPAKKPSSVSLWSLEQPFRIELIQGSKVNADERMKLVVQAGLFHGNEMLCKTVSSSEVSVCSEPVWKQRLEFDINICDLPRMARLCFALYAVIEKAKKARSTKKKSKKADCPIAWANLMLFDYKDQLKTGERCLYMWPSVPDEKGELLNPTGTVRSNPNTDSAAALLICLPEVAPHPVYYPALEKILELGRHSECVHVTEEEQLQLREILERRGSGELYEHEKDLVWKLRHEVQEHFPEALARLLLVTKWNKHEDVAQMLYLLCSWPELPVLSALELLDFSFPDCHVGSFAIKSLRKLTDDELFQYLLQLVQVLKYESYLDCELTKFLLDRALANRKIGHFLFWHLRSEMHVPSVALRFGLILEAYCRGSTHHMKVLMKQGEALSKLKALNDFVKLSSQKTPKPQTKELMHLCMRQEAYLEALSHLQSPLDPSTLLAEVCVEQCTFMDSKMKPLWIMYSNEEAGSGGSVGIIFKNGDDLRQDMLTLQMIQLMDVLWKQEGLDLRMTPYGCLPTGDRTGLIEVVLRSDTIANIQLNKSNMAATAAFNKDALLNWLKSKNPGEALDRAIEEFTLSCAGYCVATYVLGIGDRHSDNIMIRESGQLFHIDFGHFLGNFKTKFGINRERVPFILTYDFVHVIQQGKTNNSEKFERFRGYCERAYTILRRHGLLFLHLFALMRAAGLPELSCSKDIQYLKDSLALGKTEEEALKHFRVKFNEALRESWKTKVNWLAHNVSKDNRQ
Assay: PI3Kdelta Scintillation Proximity A3 Assay
Protocol: [γ-33P]ATP (10 mCi/mL) was purchased from Perkin-Elmer (Waltham, Mass.). […] PI3Kδ (p110δ/p85α) was purchased from Millipore (Bedford, Mass.). ATP, MgCl2, DTT, EDTA, MOPS and CHAPS were purchased from Sigma-Aldrich (St. Louis, Mo.). Wheat Germ Agglutinin (WGA) YSi SPA Scintillation Beads was purchased from GE healthcare life sciences (Piscataway, N.J.).The kinase reaction was conducted in polystyrene 384-well matrix white plate from Thermo Fisher Scientific in a final volume of 25 μL. Inhibitors were first diluted serially in DMSO and added to the plate wells before the addition of other reaction components. The final concentration of DMSO in the assay was 0.5%. The PI3K assays were carried out at room temperature in 20 mM MOPS, pH 6.7, 10 mM MgCl2, 5 mM DTT and CHAPS 0.03%. Reactions were initiated by the addition of ATP, the final reaction mixture consisted of 20 μM PIP2, 20 μM ATP, 0.2 μCi [γ-33P] ATP, 4 nM PI3Kδ. […] 25 mM EDTA, 400 μM ATP. The final concentration of SPA beads was 1.0 mg/mL. After the plate sealing, plates were shaken overnight at room temperature and centrifuged at 1800 rpm for 10 minutes, the radioactivity of the product was determined by scintillation counting on Topcount (Perkin-Elmer). IC50 determination was performed by fitting the curve of percent control activity versus the log of the inhibitor concentration using the GraphPad Prism 3.0 software.

IC50: < 10 nM
Compound: COc1c(C(C)n2nc(C3C=NNC3)c3c(N)ncnc32)cc(Cl)c(C)c1C1CN(CC#N)C1 (stereo unspecified) [US10376513, Example 126]
